Active and inactive are the calls of the source. The calls are words filed in the database; no cut-off is given here.
Key:
[1] = target: Cannabinoid receptor 2 (Homo sapiens) (UniProt P34972); test: Displacement of [3H]CP55940 from human recombinant CB2 receptor expressed in CHO cells at 10 uM after 2 hrs by liquid scintillation counting; type: cell-based
[2] = target: Cannabinoid receptor 1 (Homo sapiens, UniProt P21554); test: Displacement of [3H]CP55940 from human recombinant CB1 receptor expressed in CHO cells after 2 hrs by liquid scintillation counting; type: cell-based
Cannabinoid receptor 1, sequence (P21554 whole entry): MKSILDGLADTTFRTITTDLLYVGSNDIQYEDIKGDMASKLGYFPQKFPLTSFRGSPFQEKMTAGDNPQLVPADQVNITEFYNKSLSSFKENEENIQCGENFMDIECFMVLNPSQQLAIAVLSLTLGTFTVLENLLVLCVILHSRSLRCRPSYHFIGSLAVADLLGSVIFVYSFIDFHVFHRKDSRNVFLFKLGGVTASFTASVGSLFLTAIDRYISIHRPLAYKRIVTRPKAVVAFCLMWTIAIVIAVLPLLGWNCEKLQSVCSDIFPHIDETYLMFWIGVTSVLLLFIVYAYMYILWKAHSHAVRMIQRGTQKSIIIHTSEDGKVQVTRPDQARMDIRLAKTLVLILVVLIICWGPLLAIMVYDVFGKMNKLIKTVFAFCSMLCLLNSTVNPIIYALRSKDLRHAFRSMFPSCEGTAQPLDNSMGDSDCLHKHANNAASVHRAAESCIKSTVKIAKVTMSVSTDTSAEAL

Cannabinoid receptor 2 (Homo sapiens), sequence (P34972 whole entry): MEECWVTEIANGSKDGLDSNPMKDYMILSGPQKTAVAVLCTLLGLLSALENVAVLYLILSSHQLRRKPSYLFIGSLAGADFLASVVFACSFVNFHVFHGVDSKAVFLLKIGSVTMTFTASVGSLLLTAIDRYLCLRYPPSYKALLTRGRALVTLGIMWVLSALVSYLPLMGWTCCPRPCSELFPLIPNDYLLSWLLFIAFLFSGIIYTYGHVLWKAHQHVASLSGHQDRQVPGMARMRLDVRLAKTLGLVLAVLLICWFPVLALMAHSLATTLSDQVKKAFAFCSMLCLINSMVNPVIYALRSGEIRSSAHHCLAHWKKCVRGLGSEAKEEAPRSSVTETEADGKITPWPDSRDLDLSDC

Activity [1]: inactive
Ki [2]: 178 nM
SMILES: C=CC(C)(C)[C@@]12C[C@H]3C(=O)N4[C@@H](C[C@@]5(C(C)(C)C=C)c6ccccc6N[C@@H]45)C(=O)N3[C@@H]1Nc1ccccc12 [AMAUROMINE]

Reference: ChEMBL document CHEMBL2021922, “Identification of a Potent and Selective Cannabinoid CB1 Receptor Antagonist from Auxarthron reticulatum” (ACS Med Chem Lett, 2011)
